Several values for one entry are separate records, joined by “and”; a condition that tells them apart may be missing. Equal values may be shown once. Where a name gives a salt, the structure may show the parent alone. Read-outs that look alike come from different tables or passages of the source.
Experiments:
human α4β2 nAChR [1] = molecular target: T1, human α4β2 nAChR (Homo sapiens, UniProt P17787+P43681); assay: [3H]cytisine competition binding on membrane homogenates of SH-EP-hα4β2 clonal cells; design: expressed in transfected cells; settings: mean ± SEM of four experiments
Method: First, we determined the half maximal inhibitory concentration (IC50) of the synthesized molecules for human α4β2 nAChR using [^3H]-cytisine ([^3H-Cyt]) as a radioligand. It is well known that [^3H-Cyt] binds to the agonist (orthosteric) site of α4β2 nACRs.
Figure 4 Effects of phenylpyrrolidine derivatives on binding of [^3H]cytisine to human α4β2 nAChRs. Data points represent the mean ± SEM of four experiments. Each experiment was carried out in triplicate. The radioligand concentration in all displacement studies was 1 nM. The concentration-inhibition data was analyzed non-linearly.
Membrane homogenates for [^3H]-Cyt binding studies were prepared from the SH-EP-h α4β2 clonal cell line, which express human α4β2 nAChRs. Cells were maintained in Dulbecco’s modified Eagle’s medium (Invitrogen, UK) supplemented with 5% fetal serum, 10% horse serum, 2 mM L-glutamine, 10 IU/mL penicillin, 10 μg/mL streptomycin, 2.5 μg/mL amphotericin-B, 0.25 mg/mL zeocin, and 0.13 mg/mL hygromycin.
Competition binding studies were performed on membrane homogenates prepared SH-EP-hα4β2 clonal cell line, using [^3H]cyt (PerkinElmer, UK), as previously described. Membrane homogenates were incubated at a final protein concentration of 30 to 50 µg per assay tube in a final volume of 250 µL of binding saline ([…]: 120 NaCl, 5 KCl, 1 MgCl2, 2.5 CaCl2, 50 Tris, pH 7.0) for 75 min at 4 °C with 1 nM [^3H]cyt. […] Bound and free fractions were separated by rapid filtration through Whatman GF/C filters presoaked in binding saline supplemented with 0.1% polyethyleneimine. Radioactivity was quantified by liquid scintillation spectrometry.

human α4β2 nAChR [2] = molecular target: T1, human α4β2 nAChR; assay: two-electrode voltage clamp on human α4β2 nAChR expressed in Xenopus laevis oocytes; assay type: cell-based; design: expressed in transfected cells; host or cells: Xenopus laevis oocytes (nuclear cDNA injection); settings: for agonist profile at human α4β2 nAChR: in words; for Imax: maximal current normalized to response to 1 mM ACh, mean ± SEM; for Emax: read-out: maximal response (efficacy) as % of the ACh Imax
Method: The functional effects of our compounds were tested on α4β2 nAChR heterologously expressed in Xenopus laevis oocytes. Experiments were carried out by using the two-electrode voltage clamp procedure.
Figure 5 Interaction of phenylpyrrolidine derivatives with human α4β2 nicotinic receptors expressed in Xenopus laevis oocytes. Whole cell currents in response to agonist application were measured by a two-electrode voltage clamp. Concentration-response curves show activation of whole cell currents by compounds 1, 2, 3, and 4. Each point represents data from four to five cells, normalized to the amplitude of the maximal responses of ACh, which was stimulated by 1 mM of ACh. The data are fitted to a single component Hill curve.
The α4β2 nAChRs (wild type) were expressed heterologously in defolliculated oocytes from Xenopus laevis, which were dissected from adult female X. laevis frogs (Nasco, Fort Atkinson, WI, USA). The Oxford Brookes University Animal Research Committee, in accordance with the guidelines of the 1986 Scientific Procedures Act of the United Kingdom, approved the care and use of X. laevis frogs in this study. A mixture of 1:1 of human of α4 and β2 subunits for α4β2 subtype cDNAs were injected into the nuclei of oocytes in a volume of 23 nL/oocyte by using a Nanoject Automatic Oocyte Injector (Drummond Scientific, Broomall, PA, USA). After injection, oocytes were incubated at 17 °C in OPS (NaCl, KCl, CaCl2, MgCl2, pH 7.4) supplemented with a mixture of penicillin-streptomycin-anphotericin-B (10,000 IU/mL penicillin, 10 mg/mL streptomycin, and 25 µg amphotericin-B/mL) and amikacin (100 µg/mL). Experiments were performed on oocytes 2 to 6 days after injection.
Electrophysiological recording from oocyte post-injection was made at room temperature using a standard two electrode voltage clamp technique with an automatic multichannel system (HiClamp, Multichannel Systems, Reutlingen, Germany). Oocytes were impaled by two borosilicate capillary glass (Harvard Instrument: 150 TF GC) microelectrodes filled with 3 M KCl (0.3–2.0 MΩ) and voltage-clamped at −60 mV. During recording, oocytes were perfused with OPS (oocytes perfusion solution), as described in the manual of HiClamp. Agonist responses were normalized to the amplitude of the responses induced by 1 mM ACh, which is the maximal ACh concentration at α4β2 nAChRs. Between each successive ACh or compound application, the cell was perfused with OPS solution for 3 min to allow drug clearance and prevent receptor desensitization.

human α4β2 nAChR [3] = molecular target: T1, human α4β2 nAChR; settings: nicotine, included for comparison, no SEM, not in Figure 5; cited from earlier work
[4] = displacement of 1 nM [3H]cytisine, read-out: α4β2 IC50
[5] = Xenopus laevis oocytes, -60 mV, mean ± SEM of four to five experiments, read-out: α4β2 EC50
[6] = relative to 1 mM ACh, Xenopus laevis oocytes

CN1CCC[C@H]1COc1cccc(N)c1 (as salt: hydrochloride) [Compound 2, (S)-1-methyl-2-(3′-aminophenoxymethyl)pyrrolidine Ether]
melting point: 198 to 200 °C

CN1CCC[C@H]1COc1ccccc1 [Compound 1, (S)-1-methyl-2-(phenoxymethyl)pyrrolidine Ether]
IC50 (human α4β2 nAChR [1]; [4]): 204 ± 6 nM
EC50 (human α4β2 nAChR [2]; [5]): 68800 ± 1300 nM
agonist profile at human α4β2 nAChR (human α4β2 nAChR [2]; Xenopus laevis oocytes): partial agonist

CN1CCC[C@H]1COc1cccc(N)c1 [Compound 2, (S)-1-methyl-2-(3′-aminophenoxymethyl)pyrrolidine Ether]
IC50 (human α4β2 nAChR [1]; [4]): 13 nM and 13.8 nM
EC50 (human α4β2 nAChR [2]; [5]): 10800 ± 700 nM
agonist profile at human α4β2 nAChR (human α4β2 nAChR [2]; Xenopus laevis oocytes): full agonist
fold more potent than compound 1 (EC50) (human α4β2 nAChR [2]; Xenopus laevis oocytes, ratio of EC50 values): about seven-fold
Imax (human α4β2 nAChR [2]; Xenopus laevis oocytes): 1.00 ± 0.01
Emax (human α4β2 nAChR [2]; [6]): 100%

CN1CCC[C@H]1COc1cccc(Cl)c1 [Compound 3, (S)-1-methyl-2-(3′-Chlorophenoxymethyl)pyrrolidine Ether]
IC50 (human α4β2 nAChR [1]; [4]): 221 ± 10 nM
EC50 (human α4β2 nAChR [2]; [5]): 63300 ± 2100 nM
agonist profile at human α4β2 nAChR (human α4β2 nAChR [2]; Xenopus laevis oocytes): partial agonist
Imax (human α4β2 nAChR [2]; Xenopus laevis oocytes): 0.29 ± 0.01
Emax (human α4β2 nAChR [2]; [6]): 29%

CN1CCC[C@H]1COc1cccc(Br)c1 [Compound 4, (S)-1-methyl-2-(3′-bromophenoxymethyl)pyrrolidine Ether]
IC50 (human α4β2 nAChR [1]; α4β2 IC50, displacement of 1 nM [3H]cytisine): 188 ± 7 nM
EC50 (human α4β2 nAChR [2]): 56700 ± 1700 nM
agonist profile at human α4β2 nAChR (human α4β2 nAChR [2]; Xenopus laevis oocytes): partial agonist
Imax (human α4β2 nAChR [2]; Xenopus laevis oocytes): 0.13 ± 0.01
Emax (human α4β2 nAChR [2]): 13%

CN1CCC[C@H]1c1cccnc1 [Nicotine]
Imax (human α4β2 nAChR [3]): 1.00
